# Assay results from patent US6514686B2, “Method and composition for modulating amyloidosis” (The University of British Columbia, priority 1997, dated 2003).
# What was measured:
# Type in all cases: cell-based
# [1] = system: APPs secretion in KB-3.1 cells transfected with human MDR1 (p-glycoprotein); assay: APPs secretion from KB-3.1 cells transiently transfected with pHaMDR1; conditions: 0.1 μM, fifteen minutes, plated cells, transfection efficiency ~10-20%; FIG. 10
# Method: KB-3.1 cells were grown as described above. The pHaMDR1 plasmid construct encoding human MDR1 was obtained as a gift from Dr. Ira Pastan (National Cancer Institute).
# For calcium-phosphate transfections, cells were plated onto 10 cm polypropylene petri dishes (Falcon) at a density of 2.0×10^6 cells/dish. To prepare the cDNA for transfection, 15 μg/plate of pHaMDR1 cDNA was mixed together with 1/10 volumes of 3 M sodium Acetate, ˜3× volume of 100% ethanol in a 1.5 ml eppendorf tube and spun in a desktop centrifuge for thirty seconds. The tube was then filled to the top with ethanol and spun at 15,000 rpm at 4° C. for ten minutes. The ethanol was aspirated, leaving a tiny pellet of cDNA on the bottom. In a sterile fumehood, the cDNA was resuspended with 450 μl of 0.1× tris-EDTA(TE) ethylene diamine tetraacetic acid, tris EDTA and 50 μl of 2.5 M CaCl2. 500 μL of 2× BES (50 mM N, N-bis[2 Hydroxyethyl]2-aminoethanesu acid, 280 mM NaCl, 1.5 mM Na2HPO4.2 H2O, pH 6.96) was added to make a final volume of 1.0 ml. The entire mixture was allowed to sit for twenty minutes before adding the contents to the plate of cells. […]
# Exposures were performed without resuspending the cells, in contrast to previous experiments described above. […] 5 μl from each sample was collected for protein quantification. Protein determination and APPs quantification were performed as previously described.
# [2] = system: APPs secretion in KB-3.1 human carcinoma cell line; assay: APPs secretion from KB-3.1 cells with sub-detectable p-glycoprotein
# Method: These cells were grown in DMEM with 10% FBS. All materials and methods are as outlined as above.
# [3] = system: APPs secretion in wild-type PC12 cells; assay: APPs secretion from wild-type PC12 cells, fifteen minute exposure
# Source text: Phorbol 12-myristate 13-acetate (PMA) was purchased from LC Service Corp., Woburn, Mass. All other materials were obtained as previously described in Example 1. Wild-type PC12 cells were purchased from the American Type Tissue Culture Collection # CRL-1721 and grown in DMEM with 5% FBS fetal bovine serum and 10% horse serum (GIBCO).
# PC12 cells grown to confluence were pretreated for twelve hours in DMEM supplemented with charcoal-stripped calf serum (SIGMA) as described above. After pretreatment, cells were trypsinized, resuspended, and counted as described above. 10 mls each of 1.0×10^6 cells/ml PC12 cells were aliquoted into 15 ml conical tubes containing the appropriate treatment group. PMA was used as a positive control as previous experiments had shown that such treatment increases APPs release (Buxbaum, J. D. et al., “Processing of Alzheimer β/A4 amyloid precursor protein: Modulation by agents that regulate protein phosphorylation”, Proc. Natl. Acad. Sci. USA 87:6003-6006 (1990); Caporaso, G. L. et al., “Protein phosphorylation regulates secretion of Alzheimer β/A4 amyloid precursor protein”, Proc. Natl. Acad. Sci. USA 89:3055-3059 (1992); Mills, J. and P. B. Reiner, “Phorbol esters but not the cholinergic agonists oxotremorine-M and carbachol increase release of the amyloid precursor protein in cultured rat cortical neurons”, J. Neurochem. 67:1511-1518 (1996), the teachings of which are hereby incorporated by reference). The final percentage of DMSO in all treatment groups was normalized to 0.01% (v/v).
# Treatment groups were as follows: a) Control; b) PMA (0.1 μM); c) RU-486 (0.1 μM). The concentration of (0.1 μM) RU-486 was chosen because it was near the EC50 mark (FIG. 4). 1.0 ml of each treatment group was pipetted into 1.5 eppendorf tubes and incubated at 37° C. in a […] incubator for fifteen minutes. Harvesting and concentration of APPs were performed as described in Example 1. Protein band separation on SDS-PAGE, visualization of bands, and quantification of APPs were also performed as previously described.
# Materials and methods utilized were as outlined above. […]
# [4] = system: APPs secretion in GSrasDN1 PC12 cells; assay: APPs secretion from GSrasDN1 PC12 cells (22C11 western blot, densitometry)
# Source text: The GSrasDN1 PC12 subline (Dr. Simon Halegous (State University of New York at Stony Brook)) expressing the dominant inhibitory mutant ras gene, p21^N17 under the control of a dexamethasone-inducible MMTV promoter (mouse mammary tumor virus), obtained as a gift from Dr. Simon Halegoua, (Kremer et al., J. Cell Biol. 115(3):809-819 (1991)) and grown in Dulbecco's modified Eagles' medium (DMEM, GIBCO) containing 5% fetal bovine serum (FBS: v/v) and 10% heat inactivated horse serum (HS, GIBCO).
# RU-486 and NGF were solubilized in dimethylsulfoxide (DMSO). DMSO was used as a control vehicle in all experiments.
# For drug exposure experiments in GSrasDN1 PC12 cells, cells were grown to confluence in 75 cm^2 polypropylene culture flasks from Falcon. Twelve hours prior to drug treatment, the culture medium was aspirated using a pasteur pipette and replaced with 10 ml of DMEM supplemented with 15% charcoal-stripped calf serum (SIGMA) to remove complement, immunoglobulins and endogenous steroid hormones secreted from the cells. Twelve hours later, this supplemental medium was aspirated and replaced with 10 ml of DMEM containing the treatment drugs. Flasks were allotted into the following treatment groups: a) Control and b) RU-486 (3.0 μM). DMSO concentrations were normalized to 0.06% (v/v) in all flasks.
# Twelve hours following drug exposure, the medium was again aspirated and the cells were washed once with 10 ml of phosphate-buffered saline (PBS, SIGMA). Cells were removed from the bottom of the flask by incubating with 1.0 ml of trypsin (GIBCO) for five minutes. […]
# After the fifteen minutes had elapsed, the tubes were placed immediately on ice to stop any reactions and 200 μl of a protease cocktail (100 μM PMSF (phenylmethanesulfonyl fluoride), 5 μg/ml Leupeptin, 5 μg/ml Aprotinin, and 5)μg/ml Pepstatin) was added to each tube. […] The nuclear fraction was pelletted down at 14,000 rpm for ten min. and 5 μl of cellular homogenate was collected for a protein quantification. […]
# [5] = RU-486, dexamethasone 0.1 μM, progesterone, desmethoxyverapamil 1 μM, FIG. 7, 8
smiles,measurement,setting,value
"CCCCCCCCCCCCCC(=O)O[C@@H]1[C@@H](C)[C@@]2(O)[C@@H](C=C(CO)C[C@]3(O)C(=O)C(C)=C[C@@H]23)[C@@H]2C(C)(C)[C@]12OC(C)=O [PMA, Phorbol 12-myristate 13-acetate]",regulation of APPs secretion,[1],restored regulation
same,modulation of APPs secretion,"[2]; cells in suspension, FIG. 9",do not regulate
same,regulation of APPs secretion,"[2]; non-transfected cells exposed while plated, 0.1 μM, fifteen minutes",no regulation
same,effect on APPs secretion,"[3]; 0.1 μM, no drug pretreatment, FIG. 5",increase
"CC(=O)[C@H]1CC[C@H]2[C@@H]3CCC4=CC(=O)CC[C@]4(C)[C@H]3CC[C@]12C [progesterone, Progesterone]",effect on APPs secretion,[3]; [5],significantly increased
COc1cccc(CCN(C)CCCC(C#N)(c2ccc(OC)c(OC)c2)C(C)C)c1 (stereo not drawn) [desmethoxyverapamil],effect on APPs secretion,[3]; [5],significantly increased
"CC#C[C@]1(O)CC[C@H]2[C@@H]3CCC4=CC(=O)CCC4=C3[C@@H](c3ccc(N(C)C)cc3)C[C@@]21C [RU-486, 17β-hydroxy-11β-[4-dimethylaminophenyl]-17α prop-l-ynyl estra-4,9-dien-3 one]",increase in APPs secretion over NGF,"[4]; RU-486 3.0 μM versus NGF 50 ng/ml, FIG. 2",~6 fold
same,increase in APPs secretion over control samples,"[4]; RU-486 3.0 μM, twelve hours exposure, APPs collected fifteen minutes, FIG. 2",~12.5 fold
same,increased APPs secretion,"[4]; at 3.0 μM RU-486, sub-maximal concentration, FIG. 4",~21 fold
